Laboratory results taken from ChEMBL document CHEMBL3885881, “DrugMatrix”.

Species: Rattus norvegicus
Assay: DrugMatrix - Regimen: Daily Repeat
Format: toxicity, organism-based, Sprague-Dawley
Set-up: regimen Daily Repeat, gender Male, age 6-8 weeks
Settings: in vivo, po, route oral GAVAGE, vehicle 100 % WATER; for ABSOLUTE BASOPHIL / ABSOLUTE EOSINOPHIL / ABSOLUTE LYMPHOCYTE / ABSOLUTE MONOCYTE / ABSOLUTE SEGMENTED NEUTROPHIL / BASOPHIL / EOSINOPHIL / ERYTHROCYTE COUNT / HEMATOCRIT / HEMOGLOBIN / LEUKOCYTE COUNT / LYMPHOCYTE / MEAN CORPUSCULAR HEMOGLOBIN / MEAN CORPUSCULAR HEMOGLOBIN CONCENTRATION / MEAN CORPUSCULAR VOLUME / MONOCYTE / NEUTROPHIL / NUCLEATED RED BLOOD CELLS / PLATELET COUNT: tissue Blood; for ALANINE AMINOTRANSFERASE / ALBUMIN / ALKALINE PHOSPHATASE / ASPARTATE AMINOTRANSFERASE / BLOOD UREA NITROGEN / CARBON DIOXIDE / CHLORIDE / CHOLESTEROL / CREATINE PHOSPHOKINASE / CREATININE / GLUCOSE / LACTATE DEHYDROGENASE / LIPASE / PHOSPHORUS / POTASSIUM / SODIUM / TOTAL BILIRUBIN / TOTAL PROTEIN / URIC ACID: tissue Plasma
[1] = 2 mg/kg, 120 h, dose level Low, time 5 day
[2] = 2000 mg/kg, 72 h, dose level High, time 3 day
[3] = 2000 mg/kg, 120 h, dose level High, time 5 day

Structure (SMILES): CC(C)(C)c1ccc(C(=O)CCCN2CCC(OC(c3ccccc3)c3ccccc3)CC2)cc1 [EBASTINE]
- ABSOLUTE BASOPHIL [1]: 0 CELLS/uL
- ABSOLUTE EOSINOPHIL [1]: 268.33 CELLS/uL
- ABSOLUTE LYMPHOCYTE [1]: 11875.67 CELLS/uL
- ABSOLUTE MONOCYTE [1]: 285.33 CELLS/uL
- ABSOLUTE SEGMENTED NEUTROPHIL [1]: 1837.33 CELLS/uL
- BASOPHIL [1]: 0%
- EOSINOPHIL [1]: 1.67%
- ERYTHROCYTE COUNT [1]: 5.47 x10E6/uL
- HEMATOCRIT [1]: 34.03%
- HEMOGLOBIN [1]: 13.83 G/DL
- LEUKOCYTE COUNT [1]: 14.27 x10E3/uL
- LYMPHOCYTE [1]: 83.33%
- MEAN CORPUSCULAR HEMOGLOBIN [1]: 25.3 pg
- MEAN CORPUSCULAR HEMOGLOBIN CONCENTRATION [1]: 40.67 G/DL
- MEAN CORPUSCULAR VOLUME [1]: 62.27 fL
- MONOCYTE [1]: 2%
- NEUTROPHIL [1]: 13%
- NUCLEATED RED BLOOD CELLS [1]: 0 /100WBC
- PLATELET COUNT [1]: 1267.33 x10E3/uL
- ALANINE AMINOTRANSFERASE [1]: 45.33 u/L
- ALBUMIN [1]: 4.3 G/DL
- ALKALINE PHOSPHATASE [1]: 377.33 u/L
- ASPARTATE AMINOTRANSFERASE [1]: 74 u/L
- BLOOD UREA NITROGEN [1]: 15.67 mg/dL
- CARBON DIOXIDE [1]: 27.33 mmol/L
- CHLORIDE [1]: 101 MEQ/L
- CHOLESTEROL [1]: 75 mg/dL
- CREATINE PHOSPHOKINASE [1]: 212.67 u/L
- CREATININE [1]: 0.24 mg/dL
- GLUCOSE [1]: 160.33 mg/dL
- LACTATE DEHYDROGENASE [1]: 207.67 u/L
- LIPASE [1]: 10 u/L
- PHOSPHORUS [1]: 12.17 mg/dL
- POTASSIUM [1]: 6.8 MEQ/L
- SODIUM [1]: 140.47 MEQ/L
- TOTAL BILIRUBIN [1]: 0.2 mg/dL
- TOTAL PROTEIN [1]: 5.9 G/DL
- URIC ACID [1]: 1.87 mg/dL
- ABSOLUTE BASOPHIL [2]: 0 CELLS/uL
- ABSOLUTE EOSINOPHIL [2]: 34.67 CELLS/uL
- ABSOLUTE LYMPHOCYTE [2]: 11326.67 CELLS/uL
- ABSOLUTE MONOCYTE [2]: 253 CELLS/uL
- ABSOLUTE SEGMENTED NEUTROPHIL [2]: 2019 CELLS/uL
- BASOPHIL [2]: 0%
- EOSINOPHIL [2]: 0.33%
- ERYTHROCYTE COUNT [2]: 6 x10E6/uL
- HEMATOCRIT [2]: 36.1%
- HEMOGLOBIN [2]: 14.77 G/DL
- LEUKOCYTE COUNT [2]: 13.63 x10E3/uL
- LYMPHOCYTE [2]: 83%
- MEAN CORPUSCULAR HEMOGLOBIN [2]: 24.63 pg
- MEAN CORPUSCULAR HEMOGLOBIN CONCENTRATION [2]: 40.9 G/DL
- MEAN CORPUSCULAR VOLUME [2]: 60.27 fL
- MONOCYTE [2]: 1.67%
- NEUTROPHIL [2]: 15%
- NUCLEATED RED BLOOD CELLS [2]: 0.33 /100WBC
- PLATELET COUNT [2]: 1204 x10E3/uL
- ALANINE AMINOTRANSFERASE [2]: 96.33 u/L
- ALBUMIN [2]: 3.67 G/DL
- ALKALINE PHOSPHATASE [2]: 316 u/L
- ASPARTATE AMINOTRANSFERASE [2]: 119.67 u/L
- BLOOD UREA NITROGEN [2]: 13.67 mg/dL
- CARBON DIOXIDE [2]: 23.67 mmol/L
- CHLORIDE [2]: 103.67 MEQ/L
- CHOLESTEROL [2]: 57.33 mg/dL
- CREATINE PHOSPHOKINASE [2]: 1102 u/L
- CREATININE [2]: 0.21 mg/dL
- GLUCOSE [2]: 195 mg/dL
- LACTATE DEHYDROGENASE [2]: 227 u/L
- LIPASE [2]: 8.67 u/L
- PHOSPHORUS [2]: 11.03 mg/dL
- POTASSIUM [2]: 4.81 MEQ/L
- SODIUM [2]: 144.03 MEQ/L
- TOTAL BILIRUBIN [2]: 0.1 mg/dL
- TOTAL PROTEIN [2]: 5.2 G/DL
- URIC ACID [2]: 1.47 mg/dL
- ABSOLUTE BASOPHIL [3]: 0 CELLS/uL
- ABSOLUTE EOSINOPHIL [3]: 0 CELLS/uL
- ABSOLUTE LYMPHOCYTE [3]: 11532 CELLS/uL
- ABSOLUTE MONOCYTE [3]: 384.67 CELLS/uL
- ABSOLUTE SEGMENTED NEUTROPHIL [3]: 2350 CELLS/uL
- BASOPHIL [3]: 0%
- EOSINOPHIL [3]: 0%
- ERYTHROCYTE COUNT [3]: 6.72 x10E6/uL
- HEMATOCRIT [3]: 41.1%
- HEMOGLOBIN [3]: 16.37 G/DL
- LEUKOCYTE COUNT [3]: 14.27 x10E3/uL
- LYMPHOCYTE [3]: 79.67%
- MEAN CORPUSCULAR HEMOGLOBIN [3]: 24.4 pg
- MEAN CORPUSCULAR HEMOGLOBIN CONCENTRATION [3]: 39.83 G/DL
- MEAN CORPUSCULAR VOLUME [3]: 61.3 fL
- MONOCYTE [3]: 3%
- NEUTROPHIL [3]: 17.33%
- NUCLEATED RED BLOOD CELLS [3]: 0 /100WBC
- PLATELET COUNT [3]: 1272.67 x10E3/uL
- ALANINE AMINOTRANSFERASE [3]: 120.67 u/L
- ALBUMIN [3]: 3.9 G/DL
- ALKALINE PHOSPHATASE [3]: 248 u/L
- ASPARTATE AMINOTRANSFERASE [3]: 112.33 u/L
- BLOOD UREA NITROGEN [3]: 16.33 mg/dL
- CARBON DIOXIDE [3]: 28 mmol/L
- CHLORIDE [3]: 105.67 MEQ/L
- CHOLESTEROL [3]: 47 mg/dL
- CREATINE PHOSPHOKINASE [3]: 523 u/L
- CREATININE [3]: 0.22 mg/dL
- GLUCOSE [3]: 151 mg/dL
- LACTATE DEHYDROGENASE [3]: 262.67 u/L
- LIPASE [3]: 8 u/L
- PHOSPHORUS [3]: 10.77 mg/dL
- POTASSIUM [3]: 4.79 MEQ/L
- SODIUM [3]: 145.73 MEQ/L
- TOTAL BILIRUBIN [3]: 0.13 mg/dL
- TOTAL PROTEIN [3]: 5.13 G/DL
- URIC ACID [3]: 1.23 mg/dL
